Common to all, as to settings: 48 h
Experiment [1] relates to CU-ACC1. Description: AC50 viability; higher = less potent. Put shortly: (§1)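 Three adrenocortical carcinoma cell lines were seeded at 500–1,000 cells/well in 5 µL medium in 1,536-well plates. 23 nL of each MIPE 5.0 library compound was added at 11 concentrations. After 48 h (per the protocol name), CellTiter-Glo was added for 15 minutes at room temperature and luminescence was read. Signals were normalised per plate to vehicle and empty-well controls. AC50 and area under the curve came from fitted concentration-response curves, keeping only inhibitory or non-responding curve classes.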

Experiment [2] deals with CU-ACC1. Nature of the experiment: area under concentration-response curve (viability) (AUC (a.u.)); higher = less active. The method in brief: as §1
A further experiment deals with CU-ACC2. Described as above. Put shortly: as §1
The next experiment deals with NCI-H295R. The experiment is described as above. Put shortly:
as §1

In the experiment on CU-ACC1 [1], `Cc1cc(OCCC[S+](C)(=O)[O-])cc(C)c1-c1cccc(COc2ccc3c(c2)OC[C@H]3CC(=O)O)c1` gave an AC50 viability of 20.9 µM. For the same compound, the “area under concentration-response curve” value came out at 425 in the experiment on CU-ACC1 [2], 528 in the experiment on CU-ACC2 and 491 with NCI-H295R.
Turning to `O=C1c2cccc(O)c2C(=O)c2c(O)cc(CO)cc21`, in the experiment with CU-ACC1 [1], the AC50 viability was determined as 10.5 µM. Further, the “area under concentration-response curve” value with CU-ACC1 [2] came to 508; in the experiment on CU-ACC2, 656; in the experiment on NCI-H295R, 575.
As to `CC[C@H](C)C(=O)O[C@H]1CC\C=C2\C=C/[C@H](C)[C@H](CC[C@@H]3C[C@@H](O)CC(=O)O3)[C@@H]12`, in the experiment on CU-ACC1 [1], the AC50 viability was 14.8 µM. In addition, the “area under concentration-response curve” value in the experiment on CU-ACC1 [2] is 426; with CU-ACC2, 415; in the experiment with NCI-H295R, 484.
`CCN(CC)CCCC[C@H](NC(=O)[C@H](CC(C)C)NC(=O)[C@H](C)NC(=O)[C@H](Cc1ccccc1)NC(=O)c1ccc(C(C)(C)C)cc1)C(=O)N[C@@H](CO)C(=O)OC` had an AC50 viability in the experiment with CU-ACC1 [1] of 0.0132 µM. The “area under concentration-response curve” value in the experiment with CU-ACC1 [2] was determined as 446; with CU-ACC2 it was 424; in the experiment on NCI-H295R, 421.
Take `CC(=O)[C@]1(N)Cc2c(O)c3c(c(O)c2[C@@H](O[C@H]2C[C@H](O)[C@H](O)CO2)C1)C(=O)c1ccccc1C3=O`: the AC50 viability with CU-ACC1 [1] was found to be 16.6 µM. Moreover, the “area under concentration-response curve” value in the experiment with CU-ACC1 [2] worked out at 474; with CU-ACC2 it was 487; in the experiment with NCI-H295R, 534.
Taken in the same sequence, the figures for `OC[C@H](Cc1ccccc1)Nc1nc(Oc2ccc3c(c2)CCC3)nc2c1ncn2Cc1ccc(-c2ccccc2)cc1` were 14.8 µM, 430, 524 and 477.
In the experiment on CU-ACC1 [1], `Cn1c(=O)c2c(ncn2CC2OCCO2)n(C)c1=O` showed an AC50 viability of 0.00235 µM. Besides, the “area under concentration-response curve” value in the experiment on CU-ACC1 [2] was determined as 294; with CU-ACC2, 375; in the experiment with NCI-H295R, 452.
The like results for `Fc1ccc(CNc2ncnc3ccc(F)cc23)cc1` were, in that order, 2.35 µM, 415, 577 and 509.
The like results for `COc1ccc(Cc2nccc3cc(OC)c(OC)cc23)cc1OC` were, in that order, 6.61 µM, 384, 583 and 533.
Taken in the same sequence, the figures for `COc1ccc([S+](=O)([O-])Nc2cccnc2Nc2ccc(O)cc2)cc1` were 4.68 µM, 479, 569 and 498.
`Cc1[nH]c2ccc(F)cc2c1-c1nc2c3cccnc3c3ncccc3c2[nH]1`: the AC50 viability with CU-ACC1 [1] was 1.52 µM. Moreover, the figures for the “area under concentration-response curve” value in the experiment on CU-ACC1 [2], in the experiment on CU-ACC2 and in the experiment on NCI-H295R were 326, 498 and 424, respectively.
The like results for `CC(C)(C)NC(=O)Nc1cccc(Nc2ncc(F)c(NC(C)(C)CO)n2)c1` were, in that order, 23.5 µM, 525, 652 and 571.
Taken in the same sequence, the figures for `CC(C)CC(=O)Nc1n[nH]c2c1CN(C(=O)C1CCN(C)CC1)C2(C)C` were 16.6 µM, 514, 574 and 562.
As to `COC(=O)N1CCN(Cc2cccc(NC(=O)Nc3ccc(C)nc3)c2F)CC1`, in the experiment with CU-ACC1 [1], the AC50 viability came out at 74.2 µM. Also, the “area under concentration-response curve” value stood at 486 with CU-ACC1 [2], 601 in the experiment with CU-ACC2 and 573 with NCI-H295R.
As for `CCNC(=O)c1noc(-c2cc(C(C)C)c(O)cc2O)c1-c1ccc(CN2CCOCC2)cc1`, the AC50 viability with CU-ACC1 [1] is 0.0118 µM. Moreover, the “area under concentration-response curve” value in the experiment with CU-ACC1 [2] worked out at 226; in the experiment on CU-ACC2, 114; in the experiment on NCI-H295R it was 198.
Taken in the same sequence, the figures for `O=C1CCc2cc(OCCCCc3nnnn3C3CCCCC3)ccc2N1` were 18.6 µM, 468, 579 and 531.
The like results for `N[S+](=O)([O-])c1ccc(NC(=S)N2CCN(C/C=C/c3ccccc3)CC2)cc1` were, in that order, 20.9 µM, 494, 583 and 523.
`O=C(CCN1CCN(C(=O)OCc2cc(Cl)cc(Cl)c2)CC1)c1ccc2[nH]c(=O)oc2c1` came in with an AC50 viability in the experiment with CU-ACC1 [1] of 23.5 µM. Further, the figures for the “area under concentration-response curve” value in the experiment on CU-ACC1 [2] and in the experiment with CU-ACC2 were 468 and 495, respectively.
For the compound `FC1=CC=C(SC/2=N/N3\C=N/C(=O)/C(=C3/C=C2)C4=C(Cl)C=CC=C4Cl)C(=C1)F`, in the experiment with CU-ACC1 [1], the AC50 viability turned out to be 0.0372 µM. For the same compound, the “area under concentration-response curve” value in the experiment on CU-ACC1 [2] turned out to be 453; in the experiment with CU-ACC2 it was 562; with NCI-H295R, 541.
Taken in the same sequence, the figures for `CC(C)c1noc(N2CCC(COc3ccc(-c4ccc([S+](C)(=O)[O-])cc4)nc3)CC2)n1` were 8.33 µM, 419, 583 and 496.
Taken in the same sequence, the figures for `Cc1c(CN2CCC(Nc3ncnc4sc(CC(F)(F)F)cc34)CC2)ccc2c1cc(C#N)n2Cc1cn[nH]c1` were 3.32 µM, 411, 540 and 453.
The like results for `[O-]C(=O)C1=C(C(=C(Cl)C(=C1Cl)Cl)Cl)C/2=C/3\C=C(I)/C(=O)/C(=C3OC4=C2C=C(I)C(=C4I)[O-])I` were, in that order, 13.2 µM, 421, 434 and 417.
In turn, `COCCOC1=CN=C2\C=C/N([C@H](C)C3=NN=C4[N]3C=C(C=C4F)C5=C[N](C)N=C5)C(=O)C2=C1` yielded an AC50 viability in the experiment with CU-ACC1 [1] of 0.0118 µM. Besides, the entries for the “area under concentration-response curve” value in the experiment on CU-ACC1 [2], in the experiment on CU-ACC2 and in the experiment on NCI-H295R were 394, 338 and 322, respectively.
`CN(C)C(=O)c1ccc([S+](=O)([O-])c2ccc(NC(=O)[C@@](C)(O)C(F)(F)F)c(Cl)c2)cc1` gave an AC50 viability with CU-ACC1 [1] of 5.25 µM. Further, the “area under concentration-response curve” value in the experiment on CU-ACC1 [2] stood at 346; in the experiment on CU-ACC2, 640.
The like results for `COC1CCC(C(=O)c2ccc3nc4c(cc3c2)CCCO4)CC1` (stereo not given) were, in that order, 16.6 µM, 460 and 501.
Compound `O=C(O)c1ccc(O)c2ncc(N3CCOCC3)cc12` showed an AC50 viability with CU-ACC1 [1] of 23.5 µM. The “area under concentration-response curve” value with CU-ACC1 [2] was 442; in the experiment on CU-ACC2, 525.
Taken in the same sequence, the figures for `CCC1CCCCN1C(=O)n1ncc(C(O)(c2ccccc2)c2ccccc2)n1` (stereo not given) were 18.6 µM, 435 and 571.
In the case of `[O-][n+]1cccc(-c2nc3c(Cl)cccc3cc2[C@@H](Nc2ncnc3cccnc23)C(F)(F)F)c1`, the AC50 viability in the experiment with CU-ACC1 [1] worked out at 26.3 µM. In addition, the “area under concentration-response curve” value is 332 with CU-ACC1 [2] and 368 with CU-ACC2.
For `Cc1ccc(-n2nc(C(C)(C)C)cc2NC(=O)Nc2ccc(OCCN3CCOCC3)c3ccccc23)cc1`, in the experiment with CU-ACC1 [1], the AC50 viability was 29.5 µM. For the same compound, the “area under concentration-response curve” value amounted to 374 in the experiment on CU-ACC1 [2] and 499 in the experiment with CU-ACC2.
Taken in the same sequence, the figures for `CCOC(=O)[C@@]1(CCCCCCOc2ccc(Cl)cc2)CO1` were 23.5 µM, 382 and 624.
The like results for `O=C(NOCC(O)CO)c1cc(Br)c(F)c(F)c1Nc1ccc(I)cc1F` (stereo not given) were, in that order, 1.18 µM, 416 and 407.

The record behind these values is the supplement of paper PMC10949913.
